In article PMC9014857 (ACS Medicinal Chemistry Letters, 2022):

Key:
[1] = test system: VEEV TC83; experiment: microbe, parasite or virus in culture; assay type: cell-based; conditions: Venezuelan equine encephalitis virus, read-out: CPE EC50 (VEEV TC83)
[2] = test system: VEEV INH9813; experiment: microbe, parasite or virus in culture; conditions: Venezuelan equine encephalitis virus, Vero 76, read-out: CPE EC50, VEEV and EEEV
[3] = Mouse plasma stability; conditions: CD-1, mouse
[4] = test system: EEEV V105; experiment: microbe, parasite or virus in culture; assay type: cell-based, eastern equine encephalitis virus; conditions: for EC50: Eastern equine encephalitis virus, Vero 76, 48 h, read-out: EEEV V105 CPE EC50
[5] = test system: VEEV INH9813

In the case of `COc1ccc(N2C(=O)c3cc([N+](=O)[O-])ccc3N=C3C2N(C)CCN3C)cc1` (stereo not shown) [7a], the EC50 [1] is reported as 41 nM.
In the case of `COc1ccc(N2C(=O)c3cc(C#N)cc(-c4ccc(C)nc4)c3N=C3C2N(C)CCN3C)cc1F` (stereo not shown) [7o], the EC50 [2] is reported as 160 to 240 nM and the half-life [3] is reported as > 4.82 h.
With `COc1ccc(N2C(=O)c3cc([N+](=O)[O-])ccc3N=C3C2N(C)CCN3C)cc1F` (stereo not shown) [7b] the EC50 [4] was 27 ± 3 nM.
In the case of `COc1ccc(N2C(=O)c3cc(C#N)ccc3N=C3C2N(C)CCN3C)cc1` (stereo not shown) [7l], the “loss in antiviral activity for EEEV” value [4] is reported as 75 fold and the “loss in antiviral activity for VEEV” value [5] is reported as 100 fold.
`CN1CCN(C)C2C1=Nc1ccc([N+](=O)[O-])cc1C(=O)N2c1ccccc1` (stereo not shown) [7e] showed an EC50 [4] of 59 ± 10 nM.
